Measurements: patent publication US10175229B2, “Rapid method for measuring cytotoxicity in non-RI system” (NAGASAKI UNIVERSITY, priority 2014, dated 2019)

System: Histiocytoma U937 cells
Assay: Spontaneous and maximum release of labeled compound, time-resolved fluorometric assay (Eu assay)
Type: cell-based
Conditions: for maximum release (B) / spontaneous release (A): U937 cells labeled with 25 μM compound for 15 min; for maximum release (B): lysed with 0.125% digitonin in 19% DMSO, time-resolved fluorescence with europium solution; for spontaneous release (A): supernatant added to europium solution, time-resolved fluorescence, wells without digitonin; for spontaneous release (%) (C) (100 × A/B): U937 cells, 25 μM compound, ratio of spontaneous to maximum release
Experimental: Histiocytoma U937 cells were cultured in 30 mL of RPMI1640 medium under the conditions of 37° C., 5% CO2 overnight, the culture medium (30 mL) was placed in a 50 mL conical tube, and the cell number was counted. After centrifugation at 1700 rpm at 4° C. for 5 min, the supernatant was removed, and the cell pellets were resuspended in RPMI1640 medium at 1×10^6 cells/mL. To the cell suspension (1 mL) in a 15 mL conical tube was added 2.5 μL of a compound represented by the formula (I) or a salt thereof (10 mM stock solution) (final concentration: 25 μM), and the mixture was incubated under the conditions of 37° C., 5% CO2 for 15 min. The cells were washed 3 times with 5 mL of RPMI1640 medium, and resuspended in 5 mL of RPMI1640 medium. The cell suspension (2 mL) was placed in a 15 mL conical tube containing 6 mL of RPMI1640 medium to adjust the cell concentration to 5×10^3 cells/100 μL. The cell suspension (100 μL) was seeded in 6 wells of a 96 flat bottom plate. 100 μL of RPMI1640 medium was added to wells for determining the amount of spontaneous release, and 90 μL of RPMI1640 medium was added to wells for determining the amount of maximum release. The plates were centrifuged at 500 rpm, room temperature for 2 min and incubated under 37° C., 5% CO2 condition for 30 min. A newly-prepared 0.125% digitonin solution in 19% DMSO (mixed solution of 3 mg digitonin, 0.456 mL DMSO and 1.944 mL H2O) (10 μL) was added to the aforementioned wells for determining the amount of maximum release, mixed well and further incubated for 30 min. After incubation, the cell suspension was mixed well again, and centrifuged at 1700 rpm, room temperature for 2 min. After the centrifugation, the supernatant (25 μL) was carefully transferred into wells containing 250 μL of europium solution in a 96 flat bottom plate, and 200 μL of the solution thereof was placed in a 96-well flat bottom plate.
The plate was allowed to stand for 15 min, and the time-resolved fluorescence was measured by ARVO multiplate reader.

SMILES | maximum release (B) | spontaneous release (A) | spontaneous release (%) (C) (100 × A/B)
CCCC(=O)OCOC(=O)c1cccc(-c2cc(OCCCO)cc(-c3cccc(C(=O)OCOC(=O)CCC)n3)n2)n1 [Example 6, bis(butyryloxymethyl) 4′-(3-hydroxypropoxy)-2,2′:6′,2″-terpyridine-6,6″-dicarboxylate] | 103235 | 9538 | 9.2%
CC(=O)OCOC(=O)c1cccc(-c2cc(CO)cc(-c3cccc(C(=O)OCOC(C)=O)n3)n2)n1 [Example 9, bis(acetoxymethyl) 4′-(hydroxymethyl)-2,2′:6′,2″-terpyridine-6,6″-dicarboxylate] | 127955 | 21343 | 16.7%
CCCC(=O)OCOC(=O)c1cccc(-c2cc(OCCO)cc(-c3cccc(C(=O)OCOC(=O)CCC)n3)n2)n1 [Example 1, bis(butyryloxymethyl) 4′-(2-hydroxyethoxy)-2,2′:6′,2″-terpyridine-6,6″-dicarboxylate] | 65576 | 6347 | 9.7%
CCCNC(=O)COc1cc(-c2cccc(C(=O)OCOC(C)=O)n2)nc(-c2cccc(C(=O)OCOC(C)=O)n2)c1 [Example 2, bis(acetoxymethyl) 4′-(2-oxo-2-(propylamino)ethoxy)-2,2′:6′,2″-terpyridine-6,6″-dicarboxylate] | 60521 | 7085 | 11.7%
CCC(=O)OCOC(=O)c1cccc(-c2cc(OCCO)cc(-c3cccc(C(=O)OCOC(=O)CC)n3)n2)n1 [Example 5, bis(propionyloxymethyl) 4′-(2-hydroxyethoxy)-2,2′:6′,2″-terpyridine-6,6″-dicarboxylate] | 78831 | 6991 | 8.9%
CC(=O)OCOC(=O)c1cccc(-c2cccc(-c3cccc(C(=O)OCOC(C)=O)n3)n2)n1 [BATDA, bis(acetoxymethyl) 2,2′:6′,2″-terpyridine-6,6″-dicarboxylate, reference compound] | 86785 | 14795 | 17%
CCCC(=O)OCOC(=O)c1cccc(-c2cc(OCCOCCO)cc(-c3cccc(C(=O)OCOC(=O)CCC)n3)n2)n1 [Example 7, bis(butyryloxymethyl) 4′-(2-(2-hydroxyethoxy)ethoxy)-2,2′:6′,2″-terpyridine-6,6″-dicarboxylate] | 63594 | 6133 | 9.6%
CCCC(=O)OCOC(=O)c1cccc(-c2cc(OCC=O)cc(-c3cccc(C(=O)OCOC(=O)CCC)n3)n2)n1 [Example 4, bis(butyryloxymethyl) 4′-(2-oxyethoxy)-2,2′:6′,2″-terpyridine-6,6″-dicarboxylate] | 43224 | 3590 | 8.3%
CC(=O)OCOC(=O)c1cccc(-c2cc(OCCO)cc(-c3cccc(C(=O)OCOC(C)=O)n3)n2)n1 [Example 3, bis(acetoxymethyl) 4′-(2-hydroxyethoxy)-2,2′:6′,2″-terpyridine-6,6″-dicarboxylate] | 69372 | 4890 | 7%
